Laboratory results as given in publication PMC4490784, “Compensatory induction of MYC expression by sustained CDK9 inhibition via a BRD4-dependent mechanism” (eLife, 2015).

Legend:
[1] = target: T1, affinity-purified CDK12-F-CycK (Homo sapiens, UniProt Q9NYV4); assay: In vitro kinase reaction, GST-CTD substrate, pSer2 Western blotting; assay type: biochemical; conditions: even at 80 nM
T1 construct: made in house
Method: (§1) Figure 1. i-CDK9 is a potent and selective CDK9 inhibitor that elicits cellular responses indicative of P-TEFb inhibition. (A and B) Structures and selectivity profiles of i-CDK9 (A) and falvopiridol (B). […] (C) In vitro kinase reactions containing affinity-purified CDK9-F-CycT or CDK12-F-CycK and GST-CTD as a substrate were conducted in the presence of the indicated concentrations of i-CDK9. pSer2 and the Flag-tagged kinase in each reaction were detected by Western blotting with anti-pSer2 and anti-Flag antibodies, respectively. (D) HeLa cells were treated for 8 hr with DMSO or the indicated concentrations of i-CDK9. Total cell lysates were examined by immunoblotting for the proteins labeled on the left. DOI: http://dx.doi.org/10.7554/eLife.06535.003 Figure 1—source data 1. Selectivity profile of i-CDK9. DOI: http://dx.doi.org/10.7554/eLife.06535.004 Figure 1—figure supplement 1. Recombinant CDK12-CycK is less sensitive to inhibition by i-CDK9.
(§2) Among all members of the CDK super family, CDK12 deserves special attention because of its reported phosphorylation of the Pol II CTD on Ser2, an ability that is shared with CDK9 ([Bartkowiak et al., 2010]). […] Phosphorylation of Ser2 (pSer2) was detected by Western blotting with a specific antibody.

[2] = target: T2, affinity-purified CDK9-F-CycT (Homo sapiens, UniProt P50750); assay: as above; assay type: biochemical; conditions: read-out: estimated IC50 of Ser2 phosphorylation
T2 construct: made in house; host or cells: probably the HeLa-based F1C2 cells
T2 sequence (P50750 whole entry): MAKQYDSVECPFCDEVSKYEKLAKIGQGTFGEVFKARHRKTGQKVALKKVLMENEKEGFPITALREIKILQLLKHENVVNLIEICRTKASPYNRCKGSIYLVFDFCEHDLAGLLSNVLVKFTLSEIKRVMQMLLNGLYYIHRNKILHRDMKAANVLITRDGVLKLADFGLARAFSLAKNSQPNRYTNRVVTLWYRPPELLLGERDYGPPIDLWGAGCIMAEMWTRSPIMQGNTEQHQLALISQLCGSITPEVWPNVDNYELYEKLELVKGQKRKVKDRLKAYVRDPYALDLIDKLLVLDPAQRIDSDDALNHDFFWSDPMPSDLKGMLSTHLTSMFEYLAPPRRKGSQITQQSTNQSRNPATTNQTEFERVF
T2 sequence (O60563 whole entry partner): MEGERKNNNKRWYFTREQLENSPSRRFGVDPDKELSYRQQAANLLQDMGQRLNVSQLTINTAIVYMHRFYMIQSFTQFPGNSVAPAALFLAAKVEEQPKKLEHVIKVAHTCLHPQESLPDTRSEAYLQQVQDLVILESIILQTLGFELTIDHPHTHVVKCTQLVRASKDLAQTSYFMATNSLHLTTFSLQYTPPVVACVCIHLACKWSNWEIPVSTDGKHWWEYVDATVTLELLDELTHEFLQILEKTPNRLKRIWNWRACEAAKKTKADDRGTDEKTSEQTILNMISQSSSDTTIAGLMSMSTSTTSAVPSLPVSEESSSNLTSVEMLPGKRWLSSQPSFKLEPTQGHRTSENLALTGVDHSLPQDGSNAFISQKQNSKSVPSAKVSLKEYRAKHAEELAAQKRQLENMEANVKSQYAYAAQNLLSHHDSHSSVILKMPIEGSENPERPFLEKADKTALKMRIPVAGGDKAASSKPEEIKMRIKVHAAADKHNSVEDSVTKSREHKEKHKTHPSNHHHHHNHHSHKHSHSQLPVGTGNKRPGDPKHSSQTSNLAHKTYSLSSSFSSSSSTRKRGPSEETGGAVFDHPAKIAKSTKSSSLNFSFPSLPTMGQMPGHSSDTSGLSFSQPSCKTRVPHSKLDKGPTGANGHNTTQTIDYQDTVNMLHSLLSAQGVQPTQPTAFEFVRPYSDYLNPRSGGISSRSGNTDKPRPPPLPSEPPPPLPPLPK
Method: as §1, §2

[3] = test system: Ser2-phosphorylated Pol II in HeLa cells; assay: Immunoblotting of global pSer2 (Pol II CTD) in HeLa cell lysates; assay type: cell-based, human; conditions: 8 hr
Method: Inhibition of phosphorylation of both Pol II CTD and SPT5 is expected to block transcriptional elongation, which will effectively decrease the production of labile proteins from short-lived transcripts.
Figure 3. Induction of MYC mRNA production in response to sustained inhibition of CDK9 by i-CDK9 and the requirement of MYC's natural genomic structure in this process. (A) The indicated tumor cell lines were treated with i-CDK9 (0.5 μM) for 2–16 hr and the MYC mRNA levels, which were divided by those in the DMSO-treated cells and averaged from three independent replicates of DNA microarray analysis, were shown as log2 values. (B) HeLa cells were treated with the indicated concentrations of i-CDK9 for 8 hr and the various proteins in the total cell lysates were detected by immunoblotting as indicated. Quantifications of the levels of MYC protein and Ser2-phosphoryalted Pol II (pSer2) in the lysates were shown above and below the immunoblots, respectively. […] The levels of the indicated proteins were examined by immunoblotting. (G) A HeLa-based cell line containing the stably transfected, doxycycline (Dox)-inducible MYC-F-expressing plasmid driven by the CMV promoter was pretreated with (+) or without (−) Dox prior to incubation with i-CDK9 or DMSO. MYC and MYC-F expressed from the endogenous MYC locus and the transfected plasmid, respectively, were detected by immunoblotting. DOI: http://dx.doi.org/10.7554/eLife.06535.007 Figure 3—figure supplement 1. Biphasic response of MYC mRNA production throughout the course of CDK9 inhibition by i-CDK9. DOI: http://dx.doi.org/10.7554/eLife.06535.008 [drawing 2] Figure 3—Figure supplement 2. […] DOI: http://dx.doi.org/10.7554/eLife.06535.009 [drawing 3] TEXT PRINTED IN THE PICTURE: (B) i-CDK9: Fold increase in MYC protein: 1.0 (i-CDK9 (μM): 0); Fold increase in MYC protein: 1.2 (i-CDK9 (μM): 0.01); Fold increase in MYC protein: 1.7 (i-CDK9 (μM): 0.03); Fold increase in MYC protein: 3.6 (i-CDK9 (μM): 0.1); Fold increase in MYC protein: 5.2 (i-CDK9 (μM): 0.3); Fold increase in MYC protein: 5.5 (i-CDK9 (μM): 1.0) | (C) i-CDK9: Fold increase in MYC protein: 1.0 (0.3 μM i-CDK9 (h): 0); Fold increase in MYC protein: 0.9 (0.3 μM i-CDK9 (h): 1); Fold increase in MYC protein: 1.1 (0.3 μM i-CDK9 (h): 2); Fold increase in MYC protein: 1.2 (0.3 μM i-CDK9 (h): 4); Fold increase in MYC protein: 3.3 (0.3 μM i-CDK9 (h): 8)
First, the induction of MYC protein level was confirmed in HeLa cells treated with i-CDK9. […] It took 1.0 µM i-CDK9 to cause up to 85% reduction in pSer2. In a separate time-course analysis, the 8-hr incubation with i-CDK9 (0.3 μM) induced the MYC level by 3.3-fold, whereas the same condition reduced the pSer2 level by only 40% (Figure 3C). […]

CDK9-CycT1 = CDK9-CycT1 (Homo sapiens, UniProt P50750); assay: AlphaScreen-based kinase assay; assay type: biochemical; design: purchased Invitrogen
CDK9-CycT1, sequence (P50750 whole entry): as the sequence (P50750 whole entry) above
CDK9-CycT1, sequence (O60563 whole entry partner): as the sequence (O60563 whole entry partner) above
Method: The inhibitory activity of i-CDK9 for CDK1-CycB (Upstate/Millipore), CDK2-CycA (Invitrogen), CDK4-CycD1 (Novartis), CDK7-CycH-MAT1 (Invitrogen), and CDK9-CycT1 (Invitrogen) was assessed in the AlphaScreen (PerkinElmer, Inc)-based kinase assay developed at Novartis. Briefly, each CDK–cyclin pair was pre-incubated with i-CDK9 for 15 min, followed by addition of kinase substrates (ELK for CDK1 and CDK2, RB for CDK4, and CDK7tide for CDK7 and CDK9). The mixture was incubated at room temperature for additional 4–5 hr. The reaction was stopped and read on Envision (PerkinElmer, Inc). Selectivity against a large panel of over 400 kinases was evaluated using the KINOMEscan platform (DiscoveRx, CA) employing a proprietary active site-directed competition binding assay ([Fabian et al., 2005]). The assay was conducted at two different concentrations of i-CDK9 (1 and 10 µM) by DiscoveRx.

T1 sequence (Q9NYV4 whole entry): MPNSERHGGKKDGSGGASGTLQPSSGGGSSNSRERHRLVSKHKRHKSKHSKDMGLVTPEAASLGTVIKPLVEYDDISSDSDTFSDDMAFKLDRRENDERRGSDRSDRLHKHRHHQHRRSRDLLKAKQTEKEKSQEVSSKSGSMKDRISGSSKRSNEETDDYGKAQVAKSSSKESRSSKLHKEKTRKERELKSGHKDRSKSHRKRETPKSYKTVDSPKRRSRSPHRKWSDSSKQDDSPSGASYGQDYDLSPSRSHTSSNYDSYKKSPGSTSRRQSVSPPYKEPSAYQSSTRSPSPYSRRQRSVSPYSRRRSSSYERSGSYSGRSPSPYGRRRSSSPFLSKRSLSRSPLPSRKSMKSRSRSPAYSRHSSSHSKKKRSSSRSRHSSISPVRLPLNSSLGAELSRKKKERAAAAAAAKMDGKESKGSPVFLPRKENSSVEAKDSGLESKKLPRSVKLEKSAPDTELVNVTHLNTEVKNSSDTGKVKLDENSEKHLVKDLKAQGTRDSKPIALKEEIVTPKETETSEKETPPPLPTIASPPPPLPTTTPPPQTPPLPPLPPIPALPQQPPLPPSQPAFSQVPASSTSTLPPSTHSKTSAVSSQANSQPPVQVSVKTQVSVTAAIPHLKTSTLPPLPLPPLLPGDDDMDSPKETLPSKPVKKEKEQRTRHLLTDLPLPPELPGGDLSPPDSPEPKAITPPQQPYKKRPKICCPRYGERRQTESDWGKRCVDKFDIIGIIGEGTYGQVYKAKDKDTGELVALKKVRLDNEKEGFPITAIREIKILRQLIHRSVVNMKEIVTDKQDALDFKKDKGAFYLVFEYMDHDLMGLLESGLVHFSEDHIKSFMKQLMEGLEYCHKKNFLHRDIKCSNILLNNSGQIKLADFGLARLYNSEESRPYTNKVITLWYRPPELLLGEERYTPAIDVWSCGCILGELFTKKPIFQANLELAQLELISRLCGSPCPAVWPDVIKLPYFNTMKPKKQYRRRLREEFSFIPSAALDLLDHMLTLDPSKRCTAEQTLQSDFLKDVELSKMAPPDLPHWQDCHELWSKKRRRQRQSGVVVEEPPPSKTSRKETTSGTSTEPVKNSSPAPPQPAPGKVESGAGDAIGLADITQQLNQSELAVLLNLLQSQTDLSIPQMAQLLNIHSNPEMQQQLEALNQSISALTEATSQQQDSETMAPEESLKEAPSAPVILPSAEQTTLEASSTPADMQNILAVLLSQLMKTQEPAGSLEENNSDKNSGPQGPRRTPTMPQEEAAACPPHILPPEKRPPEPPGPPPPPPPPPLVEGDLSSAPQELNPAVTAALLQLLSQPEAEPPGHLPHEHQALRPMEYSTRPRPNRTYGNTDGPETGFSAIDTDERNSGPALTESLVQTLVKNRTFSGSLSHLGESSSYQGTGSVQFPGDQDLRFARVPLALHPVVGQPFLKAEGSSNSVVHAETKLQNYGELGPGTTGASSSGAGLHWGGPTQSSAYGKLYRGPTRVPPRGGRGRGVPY
T1 sequence (O75909 whole entry partner): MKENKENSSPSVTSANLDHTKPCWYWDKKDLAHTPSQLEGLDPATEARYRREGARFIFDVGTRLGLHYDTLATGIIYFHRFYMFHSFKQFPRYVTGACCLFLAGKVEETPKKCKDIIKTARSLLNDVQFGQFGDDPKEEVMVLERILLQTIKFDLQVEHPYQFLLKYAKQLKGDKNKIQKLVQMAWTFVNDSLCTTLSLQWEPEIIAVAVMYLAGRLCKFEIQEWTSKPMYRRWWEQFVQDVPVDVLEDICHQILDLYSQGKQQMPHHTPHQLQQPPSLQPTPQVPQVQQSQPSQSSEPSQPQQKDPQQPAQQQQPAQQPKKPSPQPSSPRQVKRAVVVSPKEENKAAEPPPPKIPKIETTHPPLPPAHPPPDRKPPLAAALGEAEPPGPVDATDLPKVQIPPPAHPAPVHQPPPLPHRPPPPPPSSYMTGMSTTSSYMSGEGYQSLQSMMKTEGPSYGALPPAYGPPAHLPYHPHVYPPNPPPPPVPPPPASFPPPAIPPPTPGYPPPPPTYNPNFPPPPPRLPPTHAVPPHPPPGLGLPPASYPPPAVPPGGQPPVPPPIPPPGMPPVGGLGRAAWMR

With N[C@H]1CC[C@H](Nc2cc(-c3cccc(NCc4cccc(F)c4)n3)c(Cl)cn2)CC1 [i-CDK9, N2′-(trans-4-aminocyclohexyl)-5′-chloro-N6-(3-fluorobenzyl)-2,4′-bipyridine-2′,6-diamine] the “inhibition of Ser2 phosphorylation” value [1] was “no obvious inhibition”, the IC50 [2] was about 2 nM and the “decrease of global pSer2 level” value ([3]; 0.1 μM) was 23%. For the same compound, the “reduction in global pSer2” value ([3]; 0.3 μM, Figure 4-figure supplement 1) was “about 50%”, the “reduction in pSer2” value ([3]; 1.0 μM) was “up to 85%” and the “pSer2 in the Pol II CTD and pThr775 in SPT5” value ([3]; dose-dependent) was “markedly reduced”. The IC50 (CDK9-CycT1) was at most 0.4 nM and the “fold lower activity toward CDK1-CycB, CDK2-CycA, CDK4-CycD1, CDK7-CycH-MAT1 and CDK8-CycC compared to CDK9-CycT1” value (CDK9-CycT1; selectivity) was “at least 600 fold”.
